Source: ChEMBL document CHEMBL1151662, “Insect Antifeedant Activity of Four Prieurianin-Type Limonoids” (1985)

Columns and labels:
Type in all cases: functional
[1] = tested on: Epilachna varivestis; assay: Insecticidal activity against mexican bean beetle third instar larvae at 6 ug/cm2 applied on upper surface of circular leaf disk after 2 days
[2] = tested on: Spodoptera eridania; assay: Insecticidal activity against southern armyworm third instar larvae at 19.8 ug/cm2 applied on upper surface of circular leaf disk after 6 day
[3] = tested on: Spodoptera eridania; assay: Insecticidal activity against southern armyworm third instar larvae at 1.5 ug/cm2 applied on upper surface of circular leaf disk after 6 days
[4] = tested on: Heliothis virescens; assay: Insecticidal activity against tobacco budworm third instar larvae at 1.5 ug/cm2 applied on upper surface of circular leaf disk after 2 days
[5] = tested on: Epilachna varivestis; assay: Insecticidal activity against mexican bean beetle third instar larvae at 1.5 ug/cm2 applied on upper surface of circular leaf disk after 6 days
[6] = tested on: Epilachna varivestis; assay: Insecticidal activity against mexican bean beetle third instar larvae at 1.5 ug/cm2 applied on upper surface of circular leaf disk after 2 days
[7] = tested on: Heliothis virescens; assay: Insecticidal activity against tobacco budworm third instar larvae at 19.8 ug/cm2 applied on upper surface of circular leaf disk after 6 days
[8] = tested on: Spodoptera eridania; assay: Insecticidal activity against southern armyworm third instar larvae at 19.8 ug/cm2 applied on upper surface of circular leaf disk after 2 days
[9] = tested on: Spodoptera eridania; assay: Insecticidal activity against southern armyworm third instar larvae at 1.5 ug/cm2 applied on upper surface of circular leaf disk after 2 days
[10] = tested on: Heliothis virescens; assay: Insecticidal activity against tobacco budworm third instar larvae at 6 ug/cm2 applied on upper surface of circular leaf disk after 2 days
[11] = tested on: Spodoptera eridania; assay: Insecticidal activity against southern armyworm third instar larvae at 6 ug/cm2 applied on upper surface of circular leaf disk after 6 days
[12] = tested on: Heliothis virescens; assay: Insecticidal activity against tobacco budworm third instar larvae at 1.5 ug/cm2 applied on upper surface of circular leaf disk after 6 days
[13] = tested on: Heliothis virescens; assay: Insecticidal activity against tobacco budworm third instar larvae at 6 ug/cm2 applied on upper surface of circular leaf disk after 6 days
[14] = tested on: Epilachna varivestis; assay: Insecticidal activity against mexican bean beetle third instar larvae at 19.8 ug/cm2 applied on upper surface of circular leaf disk after 2 days
[15] = tested on: Spodoptera eridania; assay: Insecticidal activity against southern armyworm third instar larvae at 6 ug/cm2 applied on upper surface of circular leaf disk after 2 days
[16] = tested on: Epilachna varivestis; assay: Insecticidal activity against mexican bean beetle third instar larvae at 19.8 ug/cm2 applied on upper surface of circular leaf disk after 6 days
[17] = tested on: Epilachna varivestis; assay: Insecticidal activity against mexican bean beetle third instar larvae at 6 ug/cm2 applied on upper surface of circular leaf disk after 6 days
[18] = tested on: Heliothis virescens; assay: Insecticidal activity against tobacco budworm third instar larvae at 19.8 ug/cm2 applied on upper surface of circular leaf disk after 2 days

| SMILES | Activity [1] [%] | Activity [2] [%] | Activity [3] [%] | Activity [4] [%] | Activity [5] [%] | Activity [6] [%] | Activity [7] [%] | Activity [8] [%] | Activity [9] [%] | Activity [10] [%] | Activity [11] [%] | Activity [12] [%] | Activity [13] [%] | Activity [14] [%] | Activity [15] [%] | Activity [16] [%] | Activity [17] [%] | Activity [18] [%] |
| --- | --- | --- | --- | --- | --- | --- | --- | --- | --- | --- | --- | --- | --- | --- | --- | --- | --- | --- |
| C/C=C(\C)C(=O)O[C@H]1C[C@@H](OC(C)=O)[C@@]2(C(=O)OC)CO[C@H]3[C@@H](O)[C@@](C)([C@]45O[C@@]4(C)[C@@H]4C[C@H]5O[C@@H]5OC=C[C@@]54O)[C@H]4[C@]1(CO[C@]4(O)C(=O)OC)[C@@H]32 [AZADIRACHTIN A] | 90 | 90 | 30 | 60 | 60 | 30 | 60 | 90 | 60 | 60 | 60 | 60 | 60 | 90 | 60 | 90 | 90 | 60 |
| C=C1[C@@H]([C@@]2(C)[C@@H](OC(C)=O)CC(=O)O[C@](C)(COC(C)=O)[C@@H]2C(=O)OC)[C@@H](OC=O)[C@H](OC(=O)[C@H](O)[C@H](C)CC)[C@@]2(C)[C@H](c3ccoc3)CC(=O)[C@]12O [PRIEURIANIN] | 30 | 0 | 0 | 30 | 0 | 0 | 60 | 30 | 0 | 30 | 0 | 0 | 60 | 60 | 0 | 60 | 30 | 60 |
| C=C1[C@@H]([C@@]2(C)C=CC(=O)O[C@]3(C)COC(=O)C[C@H]23)[C@@H](OC=O)[C@H](OC(=O)C(O)C(C)CC)[C@@]2(C)[C@@H](c3ccoc3)C[C@H](OC(C)=O)[C@]12O (some centres not stated) [ROHITIUKA 7] | 0 | 0 | 0 | 0 | 0 | 0 | 60 | 0 | 0 | 0 | 0 | 0 | 0 | 0 | 0 | 0 | 0 | 60 |
| C=C1[C@H]([C@@]2(C)[C@@H](OC(C)=O)CC(=O)O[C@]3(C)COC(=O)C[C@H]23)[C@@H](OC=O)[C@H](OC(=O)CC(C)C)[C@@]2(C)[C@@H](c3ccoc3)CC(=O)[C@@]12O [ROHITIUKIN] | 0 | 0 | 0 | 0 | 0 | 0 | 30 | 0 | 0 | 0 | 0 | 0 | 0 | 0 | 0 | 0 | 0 | 0 |
